Measurements as given in US10052320B2, “Substituted quinoxalines as FGFR kinase inhibitors” (ASTEX THERAPEUTICS LIMITED, priority 2011, dated 2018).
Read-outs that look alike come from different tables or passages of the source.

Columns and labels:
Assay type in all cases: cell-based
[1] = system: Ba/F3-Flt3-transfected cells in the presence of 10 ng/ml murine IL3; assay: Ba/F3-Flt3 (plus IL3) cellular proliferation counterscreen, Alamar Blue; settings: for IC50: Mus musculus, read-out: BAF3-FLT3 (PLUS IL3) 384 well pIC50 (converted)
Description: Ba/F3-Flt3 (Minus IL3 or Plus IL3) (Cellular Proliferation Assay)
(§1) In a 384 well plate, 100 nl of compound dilution in DMSO was sprayed before adding 50 μl cell culture medium (phenol red free RPMI-1640, 10% FBS, 2 mM L-Glutamine and 50 μg/ml Gentamycin) containing 20000 cells per well of Ba/F3-Flt3-transfected cells. Cells were put in an incubator at 37° C. and 5% CO2. After 24 hours, 10 μl of Alamar Blue solution (0.5 mM K3Fe(CN)6, 0.5 mM KaFe(CN)6, 0.15 mM Resazurin and 100 mM Phosphate Buffer) was added to the wells, incubated for 4 hours at 37° C. and 5% CO2 before RFU's (Relative Fluorescence Units) (ex. 540 nm., em. 590 nm.) were measured in a flurorescence plate reader.
(§2) As a counterscreen the same experiment was performed in the presence of 10 ng/ml murine IL3.
as §1, with “a 96” for “a 384”, “plate, 180” for “plate, 100 nl of compound dilution in DMSO was sprayed before adding 50”, “containing 10000” for “containing 20000”, “Ba/F3-Flt3-transfected cells were pipette and 20 μl of compound dilution in DMSO was added.” for “Ba/F3-Flt3-transfected cells.”, “hours, 40” for “hours, 10”

[2] = target: Ba/F3-FGFR4-transfected cells (Homo sapiens, UniProt P22455); assay: Ba/F3-FGFR4 cellular proliferation assay, Alamar Blue
Description: Ba/F3-FGFR4 (Cellular Proliferation Assay)
as §1, with “Ba/F3-FGFR4-transfected” for “Ba/F3-Flt3-transfected”

[3] = system: Ba/F3-FGFR3-transfected cells in the presence of 10 ng/ml murine IL3; assay: Ba/F3-FGFR3 (plus IL3) cellular proliferation counterscreen, Alamar Blue; settings: for IC50: Mus musculus
Description: (§3) Ba/F3-FGFR3 (Minus IL3 or Plus IL3) (Cellular Proliferation Assay)
as §1, with “Ba/F3-FGFR3-transfected” for “Ba/F3-Flt3-transfected”
as §2
as §1, with “a 96” for “a 384”, “plate, 180” for “plate, 100 nl of compound dilution in DMSO was sprayed before adding 50”, “containing 10000” for “containing 20000”, “of Ba/F3-FGFR3-transfected cells were pipette and 20 μl of compound dilution in DMSO was added.” for “of Ba/F3-Flt3-transfected cells.”, “hours, 40” for “hours, 10”

[4] = target: Ba/F3-FGFR3-transfected cells (Homo sapiens, UniProt P22607); assay: Ba/F3-FGFR3 (minus IL3) cellular proliferation assay, Alamar Blue; settings: for BAF3-FGFR 3 (MIN IL3) 384 well pIC50: minus IL3, 384 well; for BAF3-FGFR 3 (MIN IL3) 96 well pIC50: minus IL3, 96 well
Description: as §3
Cells were put in an incubator at 37° C. and 5% CO2. After 24 hours, 10 μl of Alamar Blue solution (0.5 mM K3Fe(CN)6, 0.5 mM KaFe(CN)6, 0.15 mM Resazurin and 100 mM Phosphate Buffer) was added to the wells, incubated for 4 hours at 37° C. and 5% CO2 before RFU's (Relative Fluorescence Units) (ex. 540 nm., em. 590 nm.) were measured in a flurorescence plate reader. […]
as §1, with “a 96” for “a 384”, “plate, 180” for “plate, 100 nl of compound dilution in DMSO was sprayed before adding 50”, “containing 10000” for “containing 20000”, “of Ba/F3-FGFR3-transfected cells were pipette and 20 μl of compound dilution in DMSO was added.” for “of Ba/F3-Flt3-transfected cells.”, “hours, 40” for “hours, 10”

[5] = plus 10 ng/ml murine IL3, 384 well, read-out: BAF3-FGFR 3 (PLUS IL3) 384 well pIC50 (converted)
[6] = plus 10 ng/ml murine IL3, 384 well
[7] = plus IL3, 96 well, read-out: BAF3-FGFR 3 (PLUS IL3) 96 well pIC50 (converted)

Chain of Ba/F3-FGFR4-transfected cells (P22455 whole entry, change not shown): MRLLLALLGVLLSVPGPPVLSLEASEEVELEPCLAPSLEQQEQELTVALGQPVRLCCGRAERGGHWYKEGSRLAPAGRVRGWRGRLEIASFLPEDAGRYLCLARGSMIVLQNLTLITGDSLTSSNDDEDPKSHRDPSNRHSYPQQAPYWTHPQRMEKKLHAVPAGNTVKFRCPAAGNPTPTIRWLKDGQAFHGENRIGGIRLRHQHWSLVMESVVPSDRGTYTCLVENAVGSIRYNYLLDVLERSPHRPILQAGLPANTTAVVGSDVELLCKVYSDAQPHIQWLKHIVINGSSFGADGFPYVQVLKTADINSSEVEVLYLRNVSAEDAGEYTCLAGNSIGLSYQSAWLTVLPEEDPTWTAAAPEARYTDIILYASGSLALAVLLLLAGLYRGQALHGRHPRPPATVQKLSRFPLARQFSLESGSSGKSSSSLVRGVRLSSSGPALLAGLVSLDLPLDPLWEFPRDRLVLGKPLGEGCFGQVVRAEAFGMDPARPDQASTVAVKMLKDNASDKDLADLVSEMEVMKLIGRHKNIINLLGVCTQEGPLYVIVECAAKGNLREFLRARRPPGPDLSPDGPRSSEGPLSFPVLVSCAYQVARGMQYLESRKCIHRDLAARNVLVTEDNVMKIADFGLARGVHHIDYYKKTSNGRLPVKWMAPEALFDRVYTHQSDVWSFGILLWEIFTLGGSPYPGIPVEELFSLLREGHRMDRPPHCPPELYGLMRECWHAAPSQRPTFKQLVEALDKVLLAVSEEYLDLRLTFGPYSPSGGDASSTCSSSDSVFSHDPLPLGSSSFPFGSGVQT
Chain of Ba/F3-FGFR3-transfected cells (P22607 whole entry, change not shown): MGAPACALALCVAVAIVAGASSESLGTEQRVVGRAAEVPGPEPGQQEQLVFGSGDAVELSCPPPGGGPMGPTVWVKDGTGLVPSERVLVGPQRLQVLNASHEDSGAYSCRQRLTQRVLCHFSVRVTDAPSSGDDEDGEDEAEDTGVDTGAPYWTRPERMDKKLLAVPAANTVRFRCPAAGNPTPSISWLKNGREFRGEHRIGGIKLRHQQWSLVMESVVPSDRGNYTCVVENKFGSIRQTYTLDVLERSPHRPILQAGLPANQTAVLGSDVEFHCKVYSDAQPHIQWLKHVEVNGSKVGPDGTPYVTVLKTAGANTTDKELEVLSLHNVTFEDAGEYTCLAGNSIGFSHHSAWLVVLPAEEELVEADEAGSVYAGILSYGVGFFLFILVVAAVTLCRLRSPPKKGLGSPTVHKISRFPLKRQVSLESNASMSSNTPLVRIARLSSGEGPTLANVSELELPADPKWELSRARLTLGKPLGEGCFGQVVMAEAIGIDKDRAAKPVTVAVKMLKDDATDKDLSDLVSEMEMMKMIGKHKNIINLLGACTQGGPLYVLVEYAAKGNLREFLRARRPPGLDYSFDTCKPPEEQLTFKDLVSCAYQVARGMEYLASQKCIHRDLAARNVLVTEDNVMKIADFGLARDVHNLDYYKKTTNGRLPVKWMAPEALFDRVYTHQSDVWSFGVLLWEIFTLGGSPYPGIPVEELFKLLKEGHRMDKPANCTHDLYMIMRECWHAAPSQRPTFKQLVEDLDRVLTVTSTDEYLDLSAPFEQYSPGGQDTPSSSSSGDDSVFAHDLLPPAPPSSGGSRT

Structure (SMILES) | BAF3-FGFR4 pIC50 [2] | BAF3-FGFR 3 (MIN IL3) 384 well pIC50 [4] | IC50 ([1]; plus 10 ng/ml murine IL3) [µM] | IC50 [3, 5] [µM] | other results
COCC(O)CN(c1cc(OC)cc(OC)c1)c1ccc2ncc(-c3cccnc3)nc2c1 (single isomer, unassigned) [Compound 46] | 5.8 | 6.65 | > 10 | > 10 | 
COCC(O)CN(c1cc(OC)cc(OC)c1)c1ccc2ncc(-c3cccnc3)nc2c1 (single isomer, unassigned) [Compound 47] | 5.5 | 6.3 |  |  | BAF3-FLT3 (PLUS IL3) 384 well pIC50 ([1]; plus 10 ng/ml murine IL3): <5; BAF3-FGFR 3 (PLUS IL3) 384 well pIC50 [3, 6]: <5
COc1cc(OC)cc(N(CCCNCC(F)(F)F)c2ccc3ncc(-c4cnc(OC)nc4)nc3c2)c1 [Compound 26] | ~5.1 | <5 | > 10 | > 10 | 
COc1cc(OC)cc(N(CC2CC2)c2ccc3ncc(NC(=O)c4ccc(F)cc4)nc3c2)c1 [Compound 28] | <5 | <5 | > 10 | > 10 | IC50 [3, 7]: > 10 µM; BAF3-FGFR 3 (MIN IL3) 96 well pIC50 [4]: <5
CO/N=C(\C)c1cnc2ccc(N(CCO)c3cc(OC)cc(OC)c3)cc2n1 [Compound 29] | <5 | 5.5 | > 10 | > 10 | 
COc1cc(OC)cc(N(CCN2CCOCC2)c2ccc3ncc(-c4ccc(NC(=O)N5CCOCC5)nc4)nc3c2)c1 [Compound 35] | 6.0 | 6.19 | > 10 | > 10 | 
COc1cc(OC)cc(N(CC2CC2)c2ccc3ncc(-c4c[nH]cn4)nc3c2)c1 [Compound 39] | <5 | 5.08 | > 10 | > 10 | IC50 [3, 7]: > 10 µM; BAF3-FGFR 3 (MIN IL3) 96 well pIC50 [4]: 5.51
COc1cc(OC)cc(N(CC2CC2)c2ccc3ncc(N4CCOCC4)nc3c2)c1 [Compound 63] |  | <5 |  |  | IC50 ([1]; plus IL3, 384 well): > 10 µM; BAF3-FGFR4 pIC50 ([2]; 384 well): <5; IC50 [3, 7]: > 10 µM; IC50 ([3]; plus IL3, 384 well, read-out: BAF3-FGFR 3 (PLUS IL3) 384 well pIC50 (converted)): > 10 µM; BAF3-FGFR 3 (MIN IL3) 96 well pIC50 [4]: <5
COc1cc(OC)cc(N(CCNC(C)C)c2ccc3ncc(N4CCC(CN)CC4)nc3c2)c1 [Compound 67] | 6.2 | 5.83 | > 10 | > 10 | 
COc1cc(OC)cc(N(CCN2CCN(C(C)=O)CC2)c2ccc3ncc(-c4ccc(N)nc4)nc3c2)c1 [Compound 68] | 5.7 | ~6.15 | > 10 | > 10 | 
COc1cc(OC)cc(N(CC2CC2)c2ccc3ncc(-c4ccnc(N5CCOCC5)c4)nc3c2)c1 [Compound 90] |  |  |  |  | IC50 [3, 7]: > 10 µM; BAF3-FGFR 3 (MIN IL3) 96 well pIC50 [4]: 5.09

More lines, main results first:

BAF3-FGFR4 pIC50 [2] | BAF3-FGFR 3 (MIN IL3) 384 well pIC50 [4] | Structure (SMILES) | IC50 ([1]; plus 10 ng/ml murine IL3) [µM] | IC50 [3, 5] [µM] | other results
5.6 | 6.59 | COCC(CN(c1cc(OC)cc(OC)c1)c1ccc2ncc(-c3cccnc3)nc2c1)OC(C)=O (single isomer, unassigned) [Compound 76] |  |  | BAF3-FLT3 (PLUS IL3) 384 well pIC50 ([1]; plus 10 ng/ml murine IL3): <5; BAF3-FGFR 3 (PLUS IL3) 384 well pIC50 [3, 6]: <5
<5 | 5.71 | COc1cc(OC)cc(N(CCCO)c2ccc3ncc(-c4ccnc(Cl)c4)nc3c2)c1 [Compound 136] | > 10 |  | 
6.9 | 6.4 | COc1cc(OC)cc(N(CCCNC(C)C)c2ccc3ncc(-c4ccnc(N)c4)nc3c2)c1 [Compound 143] | 6.61 |  | 
<5 | 5.1 | COc1cc(OC)cc(N(CCCNCC(F)(F)F)c2ccc3ncc(-c4ccnc(F)c4)nc3c2)c1 [Compound 144] | > 10 |  | 
6.3 | 6.41 | COc1cc(OC)cc(N(CCNC(C)C)c2ccc3ncc(-c4ccnc(C(=O)NCCCN)c4)nc3c2)c1 [Compound 146] | > 10 |  | 
<5 | <5 | COc1cc(OC)cc(N(CCCNCC(F)(F)F)c2ccc3ncc(-c4ccnc(C(=O)NCCCN)c4)nc3c2)c1 [Compound 148] | > 10 |  | 
5.6 | 5.32 | COc1cc(OC)cc(N(CCCO)c2ccc3ncc(-c4cccnc4F)nc3c2)c1 [Compound 149] | > 10 |  | 
5.8 |  | COc1cc(OC)cc(N(CCNC(C)C)c2ccc3ncc(C(=O)NCCN4CCOCC4)nc3c2)c1 [Compound 160] | > 10 | > 10 | 
6.05 | 6.17 | COc1cc(OC)cc(N(CCNC(C)C)c2ccc3ncc(-c4ccnn4C4CCCCO4)nc3c2)c1 (stereo not shown) [Compound 188] |  | > 10 | 
6.23 | ~7.1 | COc1cc(OC)cc(N(CCNC(C)C)c2ccc3ncc(-c4ccn[nH]4)nc3c2)c1 [Compound 189] |  | > 10 | 
